Common to all, as to assay type: in vivo
The test system of assay [1] is choroidal neovascularisation (CNV) induced by laser in rat eyes. As to the kind of experiment: CNV volume quantification on RPE-choroid flatmounts (FITC-GSL I-Isolectin B4) in rat laser-induced CNV. The method, then: (§1) All experiments were performed in accordance with the European Communities Council Directive 86/609/EEC and approved by local ethical committees (Ce5/2012/113). Six to eight-week old male Brown Norway rats from Janvier breeding Center (Le Genest-Saint-Isle, France) were used to create rat model of CNV. Vascular endothelial cell-specific MR knock-out mice (EC-MR-KO) and monocyte/macrophage-specific MR knock-out mice (MC-MR-KO) were generated in C57BL/6 genetic background mice and were obtained from team of Dr F. Jaisser (UMRS 1138, team 1). EC-MR-KO mice were created by mating transgenic mice expressing Cre recombinase in endothelial cells with mice harbouring MR-floxed alleles (Berger S et al. Loss of limbic mineralocorticoid receptor impairs behavioural plasticity. PNAS USA 2006). MC-MR-KO mice were obtained by mating mice expressing Cre recombinase in monocytes/macrophages (Clausen BE et al. Conditional gene targeting in macrophages and granulocytes using LysMcre mice. Trangenic Research 1999) with mice harbouring MR-floxed alleles. […]
The deepest focal plane in which the surrounding choroidal vascular network connecting to the lesion could be identified was judged to be the floor of the CNV lesion. The area of CNV-related fluorescence on each horizontal section was measured using ImageJ software. […]

The test system is the same in assay [2]. As to the kind of experiment: Fluorescein angiography grading of vascular leakage in rat model of laser-induced CNV. The note with it: 14 days after laser, versus laser control, spironolactone subcutaneous 25 mg/kg/day, anti-VEGF intravitreous at day 0. The procedure:
as §1, with “alleles. Animals were kept in pathogen-free conditions with food, water and litter and housed in a 12-hour light/12-hour dark cycle.” for “alleles.”
FA was performed 14 days (in rats) or 10 days (in mice) after laser induction. […] Early and late phase angiograms were recorded 1-3 and 5-7 min respectively after fluorescein injection. […]

Assay [3] has as its system macrophage/microglial recruitment. As to the kind of experiment: IBA1 immunofluorescence count of activated macrophage/microglial cells in laser burns on RPE-choroid flatmounts. The note with it: rat, day 3 after laser, subcutaneous spironolactone; P<0.05. The procedure:
(§2) After anesthesia and dilation of the pupils, coverslips were positioned on the cornea as a contact glass. For rats, six to eight burns were performed 2 to 3-disk diameters away from the papillae with an Argon laser (532 nm) mounted on a slit lamp (170 mW, 0.1 second and 50 μm). For mice, four laser burns were induced at the 3, 6, 9 and 12 o'clock positions around the optic disc (250 mW, 0.05 second and 50 μm). The presence of a bubble witnessed the rupture of Bruch's membrane and confirmed the success of the laser impact.
Treatments were introduced only in rat model of CNV. After laser photocoagulation, rats were divided into 6 groups: 1) non-treated; 2) daily subcutaneous injection of spironolactone diluted in oliver oil and DMSO (25 mg/kg/day) until sacrifice; 3) daily subcutaneous injection of vehicle (oliver oil and DMSO) until sacrifice; 4) intravitreous injection (IVT) of anti-rat VEGF (1.5 μg/μl, 5 μl, RnD system, Lille, France) only at day 0 (Couturier A et al. Anti-vascular endothelial growth factor acts on retinal microglia/macrophage activation in a rat model of ocular inflammation. […]
Three days after laser induction (peak of macrophage infiltration), rat RPE-choroidal flatmounts were also prepared for immunofluorescence. […] IBAI positive macrophage/microglial cells were counted on stained laser lesions. The average cell number/per impact/rat eye was calculated.

For assay [4], the system named is Transcript levels of MCP1, IL6, IL1β, TNFα, VEGF-A and PIGF. As to the kind of experiment: Quantitative PCR of rat neuroretina and RPE-choroid complex 3 days after laser. Particulars: day 3, subcutaneous spironolactone. The procedure: as §2
Treatments were introduced only in rat model of CNV. After laser photocoagulation, rats were divided into 6 groups: 1) non-treated; 2) daily subcutaneous injection of spironolactone diluted in oliver oil and DMSO (25 mg/kg/day) until sacrifice; 3) daily subcutaneous injection of vehicle (oliver oil and DMSO) until sacrifice; 4) intravitreous injection (IVT) of anti-rat VEGF (1.5 μg/μl, 5 μl, RnD system, Lille, France) only at day 0 (Couturier A et al. Anti-vascular endothelial growth factor acts on retinal microglia/macrophage activation in a rat model of ocular inflammation. Mol Vis 2014;20:908-20); 5) IVT of spironolactone-loaded PLGA MPs only at day 0 (2.2 μg/μl, 5 μl, obtained from team of Pr R. Herrero-Vanrell, Complutense University of Madrid). Considering the ex vivo release profile of Spi-MPs, the daily dose of spironolactone released in the vitreous is estimated at 18 μM; 6) IVT of blank PLGA MPs (5 μl) only at day 0.
Three days after laser induction, rat neuroretinas and RPE-choroid-sclera complexes were carefully dissected from enulcated eyes and snap-frozen in liquid nitrogen and stored at −80° C. until use. Total RNA was isolated from tissues using RNeasy Plus Mini Kit (Qiagen, Courtaboeuf, France) according to the manufacturer's instructions. First-strand complementary DNA was synthesized from total mRNA using random primers (Life Technologies, Cergy Pontoise, France) and SuperScript II reverse transcriptase (Life Technologies). Transcript levels of MR, MCP1, IL6, IL1β, TNFα, VEGF-A and PIGF were analyzed by quantitative real-time PCR performed in 7500 Real-Time PCR System (Applied Biosystems, Foster City, CA, USA) with either SYBR Green or TaqMan detection.

[5] abbreviates: RPE-choroid complex and neuroretina.

With `CC(=O)S[C@@H]1CC2=CC(=O)CC[C@]2(C)[C@H]2CC[C@@]3(C)[C@@H](CC[C@@]34CCC(=O)O4)[C@H]12` [spironolactone, 17-hydroxy-7α-mercapto-3-oxo-17α-pregn-4-ene-21-carboxylic acid γ-lactone acetate], in assay [1] (RPE/choroid flatmounts 16 days after laser, spironolactone subcutaneous, anti-VEGF intravitreous, P<0.01), the “CNV volume compared to laser control” value is recorded as “significant decrease”. In addition, the CNV development result in assay [1] (systemic administration of spironolactone) is “limits the CNV development”. In addition, in assay [2], the “decrease in angiographic score (grading of vascular leakage on FA)” value is reported as −45%. Besides, in assay [3], the “activated IBA1 positive macrophage/microglia in laser burns versus laser control” value is listed as “significant fewer”. In assay [4] (setting [5]), the “expression of PIGF at RNA level” value is listed as “not regulated” and the “expression of VEGF-A at RNA level” value was “not regulated”. Besides, in assay [4] (RPE-choroid complex), the “laser-induced gene expression of IL1β” value was “down-regulates”, the “laser-induced gene expression of IL6” value was “down-regulates”, the “laser-induced gene expression of MCP1” value is “down-regulates” and the “laser-induced gene expression of TNFα” value was “down-regulates”. In assay [4] (neuroretina), the “laser-induced gene expression of IL1β” value is recorded as “down-regulates”, the “laser-induced gene expression of MCP1” value was “down-regulates” and the “laser-induced gene expression of TNFα” value is given as “down-regulates”.
